Measured values published in PMC10018608 (Signal Transduction and Targeted Therapy, 2023).
Like-named read-outs stand apart in the source and are kept apart here.

Experiments:
in vitro [1] = type: in vitro ADME; details: human, microsomes, HLM 0.5 mg/mL, 1 μM; for remaining at 0 h: 0 min, read-out: Percent Remaining (%) 0 min; for remaining at 0 h / remaining at 5 min / remaining at […] / remaining at 0.5 h / remaining at 0.75 h / remaining at 1 h: Mean; for remaining at 5 min: read-out: Percent Remaining (%) 5 min; for remaining at […]: 15 min, read-out: Percent Remaining (%) 15 min; for remaining at 0.5 h: 30 min, read-out: Percent Remaining (%) 30 min; for remaining at 0.75 h: 45 min, read-out: Percent Remaining (%) 45 min; for remaining at 1 h: 60 min, read-out: Percent Remaining (%) 60 min; for CLint scaled: scaling factor 1254.2
[2] = SD rats
in vivo = details: male, Sprague-Dawley, rat
in vitro [3] = type: cell-based
Experimental: Cells were seeded and grown in 96 well plates overnight. Then various concentrations of compounds in fresh medium were added and incubated for 72 h. Using MTT (Sigma) assay to determine the cell viability.

SARS-CoV-2 (B.1.1.7) = test: Plaque reduction assay in VeroE6-TMPRSS2; type: cell-based; details: Severe acute respiratory syndrome coronavirus 2
SARS-CoV-2 (BA.5) = test: microbe, parasite or virus in culture; type: cell-based; details: Severe acute respiratory syndrome coronavirus 2, VeroE6-TMPRSS2, read-out: EC50 (plaque reduction)
SARS-CoV-2 (BA.2) = test: Plaque reduction assay in VeroE6-TMPRSS2; type: cell-based; details: Severe acute respiratory syndrome coronavirus 2
MERS-CoV = test: microbe, parasite or virus in culture; type: cell-based; details: Middle East respiratory syndrome-related coronavirus, VeroE6/TMPRSS2, read-out: EC50 (plaque reduction)
SARS-CoV-1 = test: microbe, parasite or virus in culture; type: cell-based; details: Severe acute respiratory syndrome coronavirus, VeroE6/TMPRSS2, read-out: EC50 (plaque reduction)
SARS-CoV-2 (B.1.351) = test: Plaque reduction assay in VeroE6-TMPRSS2; type: cell-based; details: Severe acute respiratory syndrome coronavirus 2
in vitro [4] = type: in vitro ADME, human; details: human, plasma
[5] = African green monkey, VeroE6, MTT, 72 h

| SMILES | half-life (in vitro [1]) [h] | remaining at 0 h (in vitro [1]) [%] | remaining at 5 min (in vitro [1]) [%] | remaining at […] (in vitro [1]) [%] | remaining at 0.5 h (in vitro [1]) [%] | remaining at 0.75 h (in vitro [1]) [%] | remaining at 1 h (in vitro [1]) [%] | CLint scaled (in vitro [1]) [mL/min/kg] | MTRlast ([2]; i.v. (1 mg/kg)) [h] | Vzobs ([2]; i.v. (1 mg/kg)) [L/kg] | MTRlast ([2]; p.o. (10 mg/kg)) [h] | AUC(0-inf) (in vivo; iv, 1 mg/kg) [ng·h/mL] | AUC(0-t) (in vivo; iv, 1 mg/kg) [ng·h/mL] | Cmax (in vivo; iv, 1 mg/kg) [ng/mL] | Tmax (in vivo; iv, 1 mg/kg) [h] | clearance (in vivo; iv, 1 mg/kg) [mL/min/kg] | half-life (in vivo; iv, 1 mg/kg) [h] | AUC(0-inf) (in vivo; po, 10 mg/kg) [ng·h/mL] | AUC(0-t) (in vivo; po, 10 mg/kg) [ng·h/mL] | Cmax (in vivo; po, 10 mg/kg) [ng/mL] | also measured |
| --- | --- | --- | --- | --- | --- | --- | --- | --- | --- | --- | --- | --- | --- | --- | --- | --- | --- | --- | --- | --- | --- |
| O=C(CC1CC(F)(F)C1)NCC(=O)N[C@H](Cc1ccccc1)C(=O)C(=O)NCc1nccs1 [3q] | 0.426 | 100 | 86 | 63.1 | 40.1 | 30.3 | 19.1 | 68.1 |  |  |  |  |  |  |  |  |  |  |  |  |  |
| C[C@@H](NC(=O)C1CCC(F)(F)CC1)C(=O)N[C@H](Cc1ccccc1)C(=O)C(=O)NCc1nccs1 [3r] | 0.594 | 100 | 91.5 | 73.2 | 51 | 39.1 | 32.5 | 48.8 | 1.31 ± 0.54 | 3.05 ± 2.08 | 4.89 ± 1.14 | 1020 ± 262 | 1010 ± 258 | 1110 ± 70 | 0.08 | 17 ± 3.8 | 2.41 ± 2.24 | 2840 ± 327 | 2570 ± 679 | 306 ± 32.1 | Tmax (in vivo; po, 10 mg/kg): 2.67 ± 1.15 h; bioavailability (in vivo; po, 10 mg/kg): 25.4 ± 6.71%; half-life (in vivo; po, 10 mg/kg): 3.01 ± 0.91 h; CC50 (in vitro [3]; [5]): > 500 µM; CC50 (in vitro [3]; human, BEAS-2B, MTT, 72 h): > 500 µM; CC50 (in vitro [3]; human, HUVEC, MTT, 72 h): > 500 µM |
| C[C@@H](NC(=O)C1CCCC(F)(F)C1)C(=O)N[C@H](Cc1ccccc1)C(=O)C(=O)NCc1nccs1 (some centres unmarked) [3s] | 0.424 | 100 | 81.7 | 64.2 | 42 | 28.4 | 18.9 | 68.4 |  |  |  |  |  |  |  |  |  |  |  |  |  |
| C[C@@H](NC(=O)C1CCC(F)(F)C1)C(=O)N[C@H](Cc1ccccc1)C(=O)C(=O)NCc1nccs1 (some centres unmarked) [3t] | 0.704 | 100 | 89.1 | 73.5 | 56.2 | 46.2 | 37 | 41.2 | 1.26 ± 0.42 | 2.49 ± 1.61 | 5.90 ± 0.79 | 1330 ± 556 | 1290 ± 531 | 1320 ± 168 | 0.08 | 14.5 ± 7.25 | 1.9 ± 0.27 | 6900 ± 2620 | 6720 ± 2460 | 635 ± 161 | Tmax (in vivo; po, 10 mg/kg): 1.67 ± 0.58 h; bioavailability (in vivo; po, 10 mg/kg): 52 ± 19.1%; half-life (in vivo; po, 10 mg/kg): 4.15 ± 1.48 h; CC50 (in vitro [3]; [5]): > 500 µM; CC50 (in vitro [3]; human, BEAS-2B, MTT, 72 h): > 500 µM; CC50 (in vitro [3]; human, HUVEC, MTT, 72 h): > 500 µM |
| C[C@@H](NC(=O)CC1CC(F)(F)C1)C(=O)N[C@H](Cc1ccccc1)C(=O)C(=O)NCc1nccs1 [3u] |  |  |  |  |  |  |  |  | 3.19 ± 0.31 | 3.65 ± 0.74 | 6.57 ± 0.38 | 2250 ± 672 | 2200 ± 634 | 1570 ± 201 | 0.08 | 7.95 ± 2.8 | 5.47 ± 0.77 | 8700 ± 1120 | 8180 ± 795 | 735 ± 102 | Tmax (in vivo; po, 10 mg/kg): 1.33 ± 0.58 h; bioavailability (in vivo; po, 10 mg/kg): 37.2 ± 3.62%; half-life (in vivo; po, 10 mg/kg): 5.84 ± 1.3 h; CC50 (in vitro [3]; [5]): > 500 µM; CC50 (in vitro [3]; human, BEAS-2B, MTT, 72 h): > 500 µM; CC50 (in vitro [3]; human, HUVEC, MTT, 72 h): > 500 µM |
| COC[C@@H](NC(=O)C1CCC(F)(F)CC1)C(=O)N[C@H](Cc1ccccc1)C(=O)C(=O)NCc1nccs1 [3v] | 0.65 | 100 | 88.3 | 73.2 | 54.5 | 42.3 | 34.7 | 44.6 | 3.55 ± 0.52 | 5.25 ± 2.13 | 7.63 ± 0.57 | 2830 ± 959 | 2570 ± 820 | 1700 ± 237 | 0.08 | 6.48 ± 2.63 | 9.49 ± 2.16 | 14000 ± 783 | 12700 ± 1270 | 1010 ± 115 | Tmax (in vivo; po, 10 mg/kg): 4 h; bioavailability (in vivo; po, 10 mg/kg): 49.2 ± 4.92%; half-life (in vivo; po, 10 mg/kg): 6.64 ± 1.17 h; CC50 (in vitro [3]; [5]): 132 ± 19.8 µM; CC50 (in vitro [3]; human (BEAS-2B, African green monkey (VeroE6)), across BEAS-2B, VeroE6, and HUVEC cells, MTT): 129 to 159 µM; CC50 (in vitro [3]; human, BEAS-2B, MTT, 72 h): 159 ± 4.34 µM; CC50 (in vitro [3]; human, HUVEC, MTT, 72 h): 129 ± 13.4 µM |
| COC[C@@H](NC(=O)CC1CC(F)(F)C1)C(=O)N[C@H](Cc1ccccc1)C(=O)C(=O)NCc1nccs1 [3x] | 0.507 | 100 | 91.1 | 71.5 | 50.5 | 34.3 | 26.5 | 57.2 | 3.18 ± 0.53 | 3.28 ± 1.17 | 6.47 ± 0.50 | 2390 ± 645 | 2360 ± 639 | 1350 ± 116 | 0.08 | 7.3 ± 1.9 | 5.09 ± 0.57 | 11200 ± 364 | 10800 ± 124 | 806 ± 75.4 | Tmax (in vivo; po, 10 mg/kg): 2 h; bioavailability (in vivo; po, 10 mg/kg): 45.8 ± 0.52%; half-life (in vivo; po, 10 mg/kg): 4.67 ± 1.04 h; CC50 (in vitro [3]; [5]): > 500 µM; CC50 (in vitro [3]; human, BEAS-2B, MTT, 72 h): > 500 µM; CC50 (in vitro [3]; human, HUVEC, MTT, 72 h): > 500 µM |
| O=C(c1ccc(F)cc1)C1CCN(CCn2c(=O)[nH]c3ccccc3c2=O)CC1 [Ketanserin, reference compound] | 0.373 |  | 86.9 | 62.2 | 38.1 | 24.4 | 15.9 | 77.6 |  |  |  |  |  |  |  |  |  |  |  |  |  |
| CC(C)(C)[C@H](NC(=O)C(F)(F)F)C(=O)N1C[C@H]2[C@@H]([C@H]1C(=O)N[C@H](C#N)C[C@@H]1CCNC1=O)C2(C)C [Nirmatrelvir, reference compound] | 0.407 | 100 | 86.5 | 60 | 38.7 | 26 | 18.6 | 71.2 |  |  |  |  |  |  |  |  |  |  |  |  | EC50 (SARS-CoV-2 (B.1.1.7)): 49.4 µM; EC50 (SARS-CoV-2 (BA.5)): 5.05 µM; EC50 (SARS-CoV-2 (BA.2)): 1.08 µM; EC50 (MERS-CoV): 11.3 µM; EC50 (SARS-CoV-1): 7.66 µM; EC50 (SARS-CoV-2 (B.1.351)): 28.8 µM |
| CC(=O)CC(c1ccccc1)c1c(O)c2ccccc2oc1=O (centres unmarked) [Warfarin, reference compound] |  |  |  |  |  |  |  |  |  |  |  |  |  |  |  |  |  |  |  |  | fraction unbound (in vitro [4]): 0.009 |
